Assay results as given in PubChem BioAssay (NCI).
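These data come from cells grown in 96-well plates and exposed to compound for 48 hours at five concentrations. GI50 is the concentration that inhibits growth by half. TGI: concentration producing complete growth inhibition.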

How the values were obtained:
Experiment in all cases: inhibition of tumour cell growth, NCI panel, 48 h
MDA-MB-231 breast = test system: MDA-MB-231 breast
U251 CNS = test system: U251 CNS
HCT-116 colon = test system: HCT-116 colon
SF-539 CNS = test system: SF-539 CNS
DU-145 prostate = test system: DU-145 prostate
HOP-92 NSCLC = test system: HOP-92 NSCLC
HOP-62 NSCLC = test system: HOP-62 NSCLC
SK-MEL-2 melanoma = test system: SK-MEL-2 melanoma
SNB-75 CNS = test system: SNB-75 CNS
CAKI-1 renal = test system: CAKI-1 renal

Row | Structure (SMILES) | GI50 (MDA-MB-231 breast) [µM] | TGI (MDA-MB-231 breast) [µM] | GI50 (U251 CNS) [µM] | TGI (U251 CNS) [µM] | GI50 (HCT-116 colon) [µM] | TGI (HCT-116 colon) [µM] | GI50 (SF-539 CNS) [µM] | TGI (SF-539 CNS) [µM] | GI50 (DU-145 prostate) [µM] | TGI (DU-145 prostate) [µM] | GI50 (HOP-92 NSCLC) [µM] | TGI (HOP-92 NSCLC) [µM] | GI50 (HOP-62 NSCLC) [µM] | TGI (HOP-62 NSCLC) [µM] | GI50 (SK-MEL-2 melanoma) [µM] | TGI (SK-MEL-2 melanoma) [µM] | GI50 (SNB-75 CNS) [µM] | TGI (SNB-75 CNS) [µM] | GI50 (CAKI-1 renal) [µM] | TGI (CAKI-1 renal) [µM]
1 | CSc1ccc(C2=NN(C(=O)c3ccc(N)cc3)C(c3ccc(F)cc3)C2)cc1 (centres undefined) | 12.6 | 30.6 | 3.56 | 12.6 | 1.73 | 3.93 | 15.6 | 32.4 | 10.6 | 24 | 2.36 | 17.7 | 16 | 29.8 | 21.1 | 39.9 | 14.2 | 28.1 | 15.4 | 37.4
2 | COc1cc(C2C(C#N)=C(N)Oc3cc4c(cc32)OCO4)cc2c1OCO2 (centres undefined) | 0.774 | > 100 | 0.314 | > 38 | 0.455 | > 100 | 0.279 |  | 0.362 | > 100 | 0.407 | 46.8 | 0.393 | > 100 | 0.525 | > 100 | 0.178 | > 100 | 0.382 | > 100
3 | N#Cc1c(Oc2ccc(F)c(NC(=O)Cc3cccc(C(F)(F)F)c3)c2)ccc2nc(NC(=O)C3CC3)sc12 | 0.422 | 6.26 | 0.491 | > 100 | 0.251 | > 100 | 0.436 | > 27.2 | 2.34 | > 100 | 0.278 | 2.19 | 0.472 | > 100 | 0.108 | 0.83 | 1.1 | > 100 | 0.744 | > 100
